# Measured values: patent publication US20240417410A1, “TRICYCLIC COMPOUNDS FOR THE TREATMENT OF CANCER” (Hoffmann-La Roche Inc., priority 2023, published 2024)
# What was measured:
# [1] = test system: NCI-H358 cells (KRAS G12C); test: Cell viability assay (Cell Counting Kit-8, 3-day); format: cell-based, human; settings: Homo sapiens, NCI-H358, 72 h, NCI-H358, 72 hrs incubation
# How it was run: (§1)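 Cells were seeded at 5,000 cells/well (NCI-H358) or 2,000 cells/well (AGS, SW620), incubated overnight, then treated with compounds in 0.5% DMSO final for 72 hrs. CCK-8 was added and OD450 minus OD650 read after 2 hrs; IC50 came from a 4-parameter sigmoidal fit.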
# [2] = test system: SW620 cells (KRAS G12V); test: Cell viability assay (Cell Counting Kit-8, 3-day); format: cell-based, human; settings: Homo sapiens, SW-620; SW620, 72 hrs incubation
# How it was run: as §1
# [3] = test system: AGS cells (KRAS G12D); test: Cell viability assay (Cell Counting Kit-8, 3-day); format: cell-based, human; settings: Homo sapiens, 72 h, 72 hrs incubation
# How it was run: as §1
# [4] = test system: phosphorylation of ERK, KRAS G12D in AGS cells; test: pERK inhibition assay; format: cell-based; settings: Homo sapiens, AGS, 4 h
# How it was run: (§2)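 NCI-H358 (KRAS G12C), AGS (G12D) and SW620 (G12V) cells plated overnight, then treated with compound for 4 h in 0.5% DMSO. After fixing and methanol permeabilisation, phospho-ERK was detected by in-cell ELISA (HRP/TMB, OD450). IC50 from a 4-parameter sigmoidal fit.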
# [5] = test system: phosphorylation of ERK, KRAS G12C in NCI-H358 cells; test: pERK inhibition assay; format: cell-based; settings: Homo sapiens, NCI-H358, 4 h
# How it was run: as §2
# [6] = test system: phosphorylation of ERK, KRAS G12V in SW620; test: pERK inhibition assay; format: cell-based; settings: Homo sapiens, SW-620, 4 h, SW620 cells
# How it was run: as §2
# [7] = target: KRAS G12C-BRAF complex (Homo sapiens (Human), UniProt P01116+P62937, G12C); test: KRAS-BRAF with CYPA (500 nM) interaction assay (TR-FRET, Example 136); format: biochemical; settings: KRAS G12C-BRAF disruption
# KRAS G12C-BRAF complex, sequence (P01116-2 other isoform, or with tags, fused parts or gaps G12C): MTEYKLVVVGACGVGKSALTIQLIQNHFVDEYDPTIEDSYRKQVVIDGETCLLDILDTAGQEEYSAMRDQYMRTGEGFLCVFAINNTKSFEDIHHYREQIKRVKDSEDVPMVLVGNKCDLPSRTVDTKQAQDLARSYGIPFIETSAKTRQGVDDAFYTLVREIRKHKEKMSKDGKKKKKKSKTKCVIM
# KRAS G12C-BRAF complex, sequence (P62937 whole entry): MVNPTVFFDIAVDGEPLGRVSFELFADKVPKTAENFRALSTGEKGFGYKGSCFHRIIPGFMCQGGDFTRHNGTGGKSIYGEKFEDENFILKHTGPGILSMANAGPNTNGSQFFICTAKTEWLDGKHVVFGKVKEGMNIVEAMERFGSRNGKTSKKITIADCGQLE
SMILES,IC50 [1] [nM],IC50 [2] [nM],IC50 [3] [nM],IC50 [4] [nM],IC50 [5] [nM],IC50 [6] [nM],IC50 [7] [nM]
"CO[C@@H](C)c1ncc(N2CCN(C)CC2)cc1-c1c2c3cc(cc4c3n1CCC4)-c1csc(n1)C[C@H](NC(=O)[C@H]1C[C@@H]1C(F)F)C(=O)N1CCC[C@H](N1)C(=O)OCC(C)(C)C2 (atropisomer, axis not shown; (M)) [Example 14, (1S,2S)-2-(difluoromethyl)-N-[(7S,13S)-(20M)-20-[2-[(1S)-1-methoxyethyl]-5-(4-methylpiperazin-1-yl)-3-pyridyl]-17,17-dimethyl-8,14-dioxo-15-oxa-4-thia-9,21,30,31-tetrazahexacyclo[23.3.1.1^2,5.1^9,13.0^19,27.0^21,26]hentriaconta-1 (28),2,5 (31),19,25 (29),26-hexaen-7-yl]cyclopropanecarboxamide]",3.6,1,17.5,5.6,0.8,0.7,22.2
"CO[C@@H](C)c1ncc(N2CCN(CC(F)F)CC2)cc1-c1c2c3cc(cc4c3n1CCC4)-c1csc(n1)C[C@H](NC(=O)[C@H]1[C@H](C)[C@@H]1C)C(=O)N1CCC[C@H](N1)C(=O)OCC(C)(C)C2 (atropisomer, axis not shown) [Example 109, (1r,2R,3S)-N-[(7S,13S)-20-[5-[4-(2,2-difluoroethyl)piperazin-1-yl]-2-[(1S)-1-methoxyethyl]-3-pyridyl]-17,17-dimethyl-8,14-dioxo-15-oxa-4-thia-9,21,30,31-tetrazahexacyclo[23.3.1.1^2,5.1^9,13.0^19,27.0^21,26]hentriaconta-1 (28),2,5 (31), 19,25 (29),26-hexaen-7-yl]-2,3-dimethyl-cyclopropanecarboxamide]",2.8,0.6,5.1,4.1,0.9,0.3,6
"CO[C@@H](C)c1ncc(N2CCN3CCOC[C@@H]3C2)cc1-c1c2c3cc(cc4c3n1CCC4)-c1csc(n1)C[C@H](NC(=O)[C@H]1C[C@@H]1c1cccnc1)C(=O)N1CCC[C@H](N1)C(=O)OCC(C)(C)C2 (atropisomer, axis not shown; (M)) [Example 104, (1S,2S)-N-[(7S,13S)-(20M)-20-[5-[(9αS)-3,4,6,7,9,9a-hexahydro-1H-pyrazino[2,1-c][1,4]oxazin-8-yl]-2-[(1S)-1-methoxyethyl]-3-pyridyl]-17,17-dimethyl-8,14-dioxo-15-oxa-4-thia-9,21,30,31-tetrazahexacyclo[23.3.1.1^2,5.1^9,13.0^19,27.0^21,26]hentriaconta-1 (28),2,5 (31),19,25 (29),26-hexaen-7-yl]-2-(3-pyridyl)cyclopropanecarboxamide]",0.8,0.2,3.8,1.6,1,0.4,9.8
"CO[C@@H](C)c1ncc(N2CCN(C)CC2)cc1-c1c2c3cc(cc4c3n1CCO4)-c1csc(n1)C[C@H](NC(=O)[C@H]1C[C@@H]1c1ccccc1)C(=O)N1CCC[C@H](N1)C(=O)OCC(C)(C)C2 (atropisomer, axis not shown; (M)) [Example 51, (1S,2S)-N-[(7S,13S)-(20M)-20-[2-[(1S)-1-methoxyethyl]-5-(4-methylpiperazin-1-yl)-3-pyridyl]-17,17-dimethyl-8,14-dioxo-15,24-dioxa-4-thia-9,21,30,31-tetrazahexacyclo[23.3.1.1^2,5.1^9,13.0^19,27.0^21,26]hentriaconta-1 (29),2,5 (31), 19,25,27-hexaen-7-yl]-2-phenyl-cyclopropanecarboxamide]",5.9,1.4,13.3,4.8,1,0.7,21.1
"CO[C@@H](C)c1ncc(N2CCN(C3COC3)CC2)cc1-c1c2c3cc(cc4c3n1CCC4)-c1csc(n1)C[C@H](NC(=O)[C@H]1[C@H](C)[C@@H]1C)C(=O)N1CCC[C@H](N1)C(=O)OCC(C)(C)C2 (atropisomer, axis not shown; (M)) [Example 118, (1r,2R,3S)-N-[(7S,13S)-(20M)-20-[2-[(1S)-1-methoxyethyl]-5-[4-(oxetan-3-yl)piperazin-1-yl]-3-pyridyl]-17,17-dimethyl-8,14-dioxo-15-oxa-4-thia-9,21,30,31-tetrazahexacyclo[23.3.1.1^2,5.1^9,13.0^19,27.0^21,26]hentriaconta-1 (28),2,5 (31), 19,25 (29),26-hexaen-7-yl]-2,3-dimethyl-cyclopropanecarboxamide]",1.1,0.2,1.3,3.5,0.7,0.3,13.5
"CO[C@@H](C)c1ncc(N2CCN(CC(F)(F)F)CC2)cc1-c1c2c3cc(cc4c3n1CCC4)-c1csc(n1)C[C@H](NC(=O)[C@H]1C[C@@H]1C(F)F)C(=O)N1CCC[C@H](N1)C(=O)OCC(C)(C)C2 (atropisomer, axis not shown; (M)) [Example 21, (1S,2S)-2-(difluoromethyl)-N-[(7S,13S)-(20M)-20-[2-[(1S)-1-methoxyethyl]-5-[4-(2,2,2-trifluoroethyl)piperazin-1-yl]-3-pyridyl]-17,17-dimethyl-8,14-dioxo-15-oxa-4-thia-9,21,30,31-tetrazahexacyclo[23.3.1.1^2,5.1^9,13.0^19,27.0^21,26]hentriaconta-1 (28),2,5 (31),19,25 (29),26-hexaen-7-yl]cyclopropanecarboxamide]",15.3,1.9,56.2,8.8,2.1,1.4,15
"CO[C@@H](C)c1ncc(N2CCOCC2)cc1-c1c2c3cc(cc4c3n1CCC4)-c1csc(n1)C[C@H](NC(=O)[C@@H]1C[C@H]1C1CC1)C(=O)N1CCC[C@H](N1)C(=O)OCC(C)(C)C2 (atropisomer, axis not shown; (M)) [Example 37, (1R,2S)-2-cyclopropyl-N-[(7S,13S)-(20M)-20-[2-[(1S)-1-methoxyethyl]-5-morpholino-3-pyridyl]-17,17-dimethyl-8,14-dioxo-15-oxa-4-thia-9,21,30,31-tetrazahexacyclo[23.3.1.1^2,5.1^9,13.0^19,27.0^21,26]hentriaconta-1 (29),2,5 (31),19,25,27-hexaen-7-yl]cyclopropanecarboxamide]",7.8,2.1,28.3,9.1,0.9,0.6,20.5
"CO[C@@H](C)c1ncc(N2CCN(C)CC2)cc1-c1c2c3cc(cc4c3n1CCC4)-c1csc(n1)C[C@H](NC(=O)[C@H]1[C@@H]3COC[C@@H]31)C(=O)N1CCC[C@H](N1)C(=O)OCC(C)(C)C2 (atropisomer, axis not shown; (M)) [Example 15, (1S,5R,6r)-N-[(7S,13S)-(20M)-20-[2-[(1S)-1-methoxyethyl]-5-(4-methylpiperazin-1-yl)-3-pyridyl]-17,17-dimethyl-8,14-dioxo-15-oxa-4-thia-9,21,30,31-tetrazahexacyclo[23.3.1.1^2,5.1^9,13.0^19,27.0^21,26]hentriaconta-1 (28),2,5 (31), 19,25 (29),26-hexaen-7-yl]-3-oxabicyclo[3.1.0]hexane-6-carboxamide]",6.6,1.2,15.9,5.2,0.7,0.8,11.9
"CO[C@@H](C)c1ncc(N2CCN(C)CC2)cc1-c1c2c3cc(cc4c3n1CCC4)-c1csc(n1)C[C@H](NC(=O)[C@@H]1C[C@H]1C1CC1)C(=O)N1CCC[C@H](N1)C(=O)OCC(C)(C)C2 (atropisomer, axis not shown; (M)) [Example 16, (1R,2S)-2-cyclopropyl-N-[(7S,13S)-(20M)-20-[2-[(1S)-1-methoxyethyl]-5-(4-methylpiperazin-1-yl)-3-pyridyl]-17,17-dimethyl-8,14-dioxo-15-oxa-4-thia-9,21,30,31-tetrazahexacyclo[23.3.1.1^2,5.1^9,13.0^19,27.0^21,26]hentriaconta-1 (28),2,5 (31),19,25 (29),26-hexaen-7-yl]cyclopropanecarboxamide]",7.3,1.6,25.9,2.6,4.6,2.8,10.2
"CO[C@@H](C)c1ncc(N2CCN(C[C@@H]3CNCCO3)CC2)cc1-c1c2c3cc(cc4c3n1CCC4)-c1csc(n1)C[C@H](NC(=O)[C@H]1[C@H](C)[C@@H]1C)C(=O)N1CCC[C@H](N1)C(=O)OCC(C)(C)C2 (atropisomer, axis not shown; (M)) [Example 119, (1r,2S,3R)-N-[(7S,13S)-(20M)-20-[2-[(1S)-1-methoxyethyl]-5-[4-[[(2S)-morpholin-2-yl]methyl]piperazin-1-yl]-3-pyridyl]-17,17-dimethyl-8,14-dioxo-15-oxa-4-thia-9,21,30,31-tetrazahexacyclo[23.3.1.1^2,5.1^9,13.0^19,27.0^21,26]hentriaconta-1 (28),2,5 (31),19,25 (29),26-hexaen-7-yl]-2,3-dimethyl-cyclopropanecarboxamide]",3.5,0.8,4.4,6.9,1.7,1.2,9.3
